In article PMC9382805, “Design, synthesis, anticancer evaluation and docking studies of novel 2-(1-isonicotinoyl-3-phenyl-1H-pyrazol-4-yl)-3-phenylthiazolidin-4-one derivatives as Aurora-A kinase inhibitors” (BMC Chemistry, 2022):
Where two headings read alike, the source gives them in different places.

Tests used:
[1] = tested on: HCT116 cell line (colorectal carcinoma); assay: MTT cytotoxicity assay, HCT116; format: cell-based, human
Method: (§1) MTT assay was engaged to evaluate the anticancer activity of synthesized compounds P(1–21) against various human cancer cell lines (breast cancer- MCF-7 and colorectal carcinoma- HCT116) [31–34].
(§2) The MTT test was carried out using the 3-(4,5-dimethyl-2-thiazolyl)-2,5-diphenyl-2H-tetrazolium (MTT) colorimetric test [33, 34]. […] The MTT test based on the reduction of MTT (yellow color) depends on cellular metabolic activities due to H-dependent cellular NAD (P) oxidoreductase enzymes [33]. […] The final product of MTT reduction is a purple formazan that can be easily dissolved in DMSO.
(§3) To test the anticancer activities of the synthesized compounds (selected based on docking studies), we evaluated the antiproliferative activity of compounds P (1–21) against HCT116 and MCF-7 cell lines. All the experiments were repeated at least thrice independently, the 50% inhibitory concentration (IC50) of new hybrids was determined (as the anticancer drug concentration causing a 50% reduction in cell viability) and calculated using a trendline equation.

[2] = tested on: MCF-7 cell line (breast cancer); assay: MTT cytotoxicity assay, MCF-7; format: cell-based, human
Method: as §1, §2, §3

[3] = molecular target: recombinant human Aurora-A (Homo sapiens, UniProt O14965); assay: biochemical; conditions: NADH consumption at 340 nm, 30 °C; read-out: IC50 ± SD, inhibition of Aurora-A kinase
Method: At 30 °C, dilute enzyme (aurora A), substrates (NADH, NaCl, MgCl2, PEP, LDH, PK, and histones H3), ATP, and inhibitors (selected compounds as per in silico studies) in kinase buffer (HEPES) and this to 96 well plates and incubate for 60 min. Once the ATP substrate was added, the reaction began. With the reaction, NADH was continuously transformed into NAD^+ The activity of Aurora-A can be assayed by measuring the consumption of nicotinamide adenine dinucleotide plus hydrogen (NADH) at 340 nm. Absorbance at 340 nm was continuously recorded for 10 min. Inhibition of recombinant human Aurora-A by inhibitors was initially screened via an enzyme-coupled continuous spectrophotometric assay (Kishore et al., 2008; Aixia et al., 2011; Fancelli D et al., 2006).

[4] = tested on: HCT 116 and MCF-7 cell lines; assay: cells; conditions: Homo sapiens, read-out: IC50, cytotoxicity, range over two cancer cell lines
Method: as §1, §2, §3

[5] = Homo sapiens, HCT-116, read-out: IC50 ± SD, HCT-116, inhibition of growth of tumor cell lines
[6] = Homo sapiens, MCF7, read-out: IC50 ± SD, MCF-7, inhibition of growth of tumor cell lines

Chain of recombinant human Aurora-A (O14965 whole entry): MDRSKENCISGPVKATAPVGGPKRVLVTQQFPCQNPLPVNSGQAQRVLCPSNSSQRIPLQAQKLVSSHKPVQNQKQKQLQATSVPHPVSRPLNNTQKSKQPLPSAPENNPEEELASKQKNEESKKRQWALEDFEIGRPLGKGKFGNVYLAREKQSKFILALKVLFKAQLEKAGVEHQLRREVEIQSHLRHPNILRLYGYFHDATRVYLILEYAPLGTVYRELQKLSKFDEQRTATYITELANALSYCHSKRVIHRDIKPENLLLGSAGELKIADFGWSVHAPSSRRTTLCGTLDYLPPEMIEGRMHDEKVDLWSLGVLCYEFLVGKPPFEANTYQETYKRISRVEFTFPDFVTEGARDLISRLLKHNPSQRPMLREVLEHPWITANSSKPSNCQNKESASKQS

SMILES | IC50 [1, 5] [µM] | IC50 [2, 6] [µM] | IC50 [3] [µM] | melting point [°C] | IC50 [4] [µM] | IC50 ([1]; Homo sapiens, HCT-116, MTT assay, HCT116, read-out: IC50 ± SD, HCT-116, inhibition of growth of tumor cell lines) [µM] | IC50 ([1]; MTT assay, HCT116, listed as VX-680 (Tozasertib), read-out: IC50 ± SD, HCT-116, inhibition of growth of tumor cell lines) [µM] | IC50 ([2]; Homo sapiens, MCF7, MTT assay, MCF-7, read-out: IC50 ± SD, MCF-7, inhibition of growth of tumor cell lines) [µM] | IC50 ([2]; MTT assay, MCF-7, listed as VX-680 (Tozasertib), read-out: IC50 ± SD, MCF-7, inhibition of growth of tumor cell lines) [µM]
O=C1CSC(c2cn(C(=O)c3ccncc3)nc2-c2ccc([N+](=O)[O-])cc2)N1c1ccccc1 (stereo not drawn) [Compound P-1, 2-(1-isonicotinoyl-3-(4-nitrophenyl)-1H-pyrazol-4-yl)-3-phenylthiazolidin-4-one] | 2.3 ± 0.14 | 4.4 ± 0.18 | 2.34 ± 0.36 | – | – | – | – | – | –
O=C1CSC(c2cn(C(=O)c3ccncc3)nc2-c2ccc([N+](=O)[O-])cc2)N1c1ccc([N+](=O)[O-])cc1 (stereo not drawn) [Compound P-2, 2-(1-isonicotinoyl-3-(4-nitrophenyl)-1H-pyrazol-4-yl)-3-(4-nitrophenyl)thiazolidin-4-one] | 3.52 ± 0.33 | 3.26 ± 0.31 | 3.57 ± 0.35 | – | – | – | – | – | –
O=C1CSC(c2cn(C(=O)c3ccncc3)nc2-c2ccc([N+](=O)[O-])cc2)N1c1ccccc1[N+](=O)[O-] (stereo not drawn) [Compound P-3, 2-(1-isonicotinoyl-3-(4-nitrophenyl)-1H-pyrazol-4-yl)-3-(2-nitrophenyl)thiazolidin-4-one] | 4.47 ± 0.45 | 4.49 ± 0.42 | 7.25 ± 0.8 | 282 to 284 | – | – | – | – | –
O=C1CSC(c2cn(C(=O)c3ccncc3)nc2-c2ccc([N+](=O)[O-])cc2)N1c1ccc(Cl)cc1 (stereo not drawn) [Compound P-4, 3-(4-chlorophenyl)-2-(1-isonicotinoyl-3-(4-nitrophenyl)-1H-pyrazol-4-yl)thiazolidin-4-one] | 1.35 ± 0.07 | 2.55 ± 0.07 | 1.33 ± 0.15 | 286 to 288 | – | – | – | – | –
O=C1CSC(c2cn(C(=O)c3ccncc3)nc2-c2ccc([N+](=O)[O-])cc2)N1c1cccc(Cl)c1 (stereo not drawn) [Compound P-5, 3-(3-chlorophenyl)-2-(1-isonicotinoyl-3-(4-nitrophenyl)-1H-pyrazol-4-yl)thiazolidin-4-one] | 3.88 ± 0.16 | 4.01 ± 0.1 | 4.79 ± 0.83 | 274 to 276 | – | – | – | – | –
COc1ccc(N2C(=O)CSC2c2cn(C(=O)c3ccncc3)nc2-c2ccc([N+](=O)[O-])cc2)cc1 (stereo not drawn) [Compound P-6, 2-(1-isonicotinoyl-3-(4-nitrophenyl)-1H-pyrazol-4-yl)-3-(4-methoxyphenyl)thiazolidin-4-one] | 0.37 ± 0.15 | 0.44 ± 0.06 | 0.18 ± 0.05 | – | 0.37 to 0.44 | – | – | – | –
COc1ccccc1N1C(=O)CSC1c1cn(C(=O)c2ccncc2)nc1-c1ccc([N+](=O)[O-])cc1 (stereo not drawn) [Compound P-7, 2-(1-isonicotinoyl-3-(4-nitrophenyl)-1H-pyrazol-4-yl)-3-(2-methoxyphenyl)thiazolidin-4-one] | 0.62 ± 0.03 | 0.88 ± 0.03 | 0.42 ± 0.12 | 250 to 252 | – | – | – | – | –
COc1ccc(-c2nn(C(=O)c3ccncc3)cc2C2SCC(=O)N2c2ccccc2)cc1 (stereo not drawn) [Compound P-8, 2-(1-isonicotinoyl-3-(4-methoxyphenyl)-1H-pyrazol-4-yl)-3-phenylthiazolidin-4-one] | 5.35 ± 0.27 | 6.08 ± 0.24 | 7.32 ± 0.69 | 300 to 302 | – | – | – | – | –
COc1ccc(-c2nn(C(=O)c3ccncc3)cc2C2SCC(=O)N2c2ccc([N+](=O)[O-])cc2)cc1 (stereo not drawn) [Compound P-9, 2-(1-isonicotinoyl-3-(4-methoxyphenyl)-1H-pyrazol-4-yl)-3-(4-nitrophenyl)thiazolidin-4-one] | 1.45 ± 0.18 | 1.62 ± 0.05 | 1.45 ± 0.05 | 308 to 310 | – | – | – | – | –
COc1ccc(-c2nn(C(=O)c3ccncc3)cc2C2SCC(=O)N2c2ccccc2[N+](=O)[O-])cc1 (stereo not drawn) [Compound P-10, 2-(1-isonicotinoyl-3-(4-methoxyphenyl)-1H-pyrazol-4-yl)-3-(2-nitrophenyl)thiazolidin-4-one] | 0.78 ± 0.04 | 1.03 ± 0.11 | 0.65 ± 0.09 | 322 to 324 | – | – | – | – | –
COc1ccc(-c2nn(C(=O)c3ccncc3)cc2C2SCC(=O)N2c2ccc(Cl)cc2)cc1 (stereo not drawn) [Compound P-11, 3-(4-chlorophenyl)-2-(1-isonicotinoyl-3-(4-methoxyphenyl)-1H-pyrazol-4-yl)thiazolidin-4-one] | 2.54 ± 0.2 | 2.53 ± 0.19 | 2.78 ± 0.14 | 318 to 320 | – | – | – | – | –
COc1ccc(-c2nn(C(=O)c3ccncc3)cc2C2SCC(=O)N2c2cccc(Cl)c2)cc1 (stereo not drawn) [Compound P-12, 3-(3-chlorophenyl)-2-(1-isonicotinoyl-3-(4-methoxyphenyl)-1H-pyrazol-4-yl)thiazolidin-4-one] | 4.06 ± 0.38 | 4.35 ± 0.47 | 5.59 ± 0.37 | 338 to 340 | – | – | – | – | –
COc1ccc(-c2nn(C(=O)c3ccncc3)cc2C2SCC(=O)N2c2ccc(OC)cc2)cc1 (stereo not drawn) [Compound P-13, 2-(1-isonicotinoyl-3-(4-methoxyphenyl)-1H-pyrazol-4-yl)-3-(4-methoxyphenyl) thiazolidin-4-one] | 5.87 ± 0.42 | 8.21 ± 0.35 | 12.4 ± 0.85 | – | – | – | – | – | –
COc1ccc(-c2nn(C(=O)c3ccncc3)cc2C2SCC(=O)N2c2ccccc2OC)cc1 (stereo not drawn) [Compound P-14] | – | – | – | 336 to 338 | – | – | – | – | –
O=C1CSC(c2cn(C(=O)c3ccncc3)nc2-c2ccc(Br)cc2)N1c1ccccc1 (stereo not drawn) [Compound P-15, 2-(3-(4-bromophenyl)-1-isonicotinoyl-1H-pyrazol-4-yl)-3-phenylthiazolidin-4-one] | 2.18 ± 0.15 | 2.34 ± 0.27 | 2.1 ± 0.13 | 256 to 258 | – | – | – | – | –
O=C1CSC(c2cn(C(=O)c3ccncc3)nc2-c2ccc(Br)cc2)N1c1ccc([N+](=O)[O-])cc1 (stereo not drawn) [Compound P-16, 2-(3-(4-bromophenyl)-1-isonicotinoyl-1H-pyrazol-4-yl)-3-(4-nitrophenyl)thiazolidin-4-one] | 2.01 ± 0.11 | 2.25 ± 0.25 | 2.1 ± 0.15 | 268 to 270 | – | – | – | – | –
O=C1CSC(c2cn(C(=O)c3ccncc3)nc2-c2ccc(Br)cc2)N1c1ccc(Cl)cc1 (stereo not drawn) [Compound P-18, 2-(3-(4-bromophenyl)-1-isonicotinoyl-1H-pyrazol-4-yl)-3-(4-chlorophenyl)thiazolidin-4-one] | 1.52 ± 0.09 | 1.77 ± 0.15 | 1.62 ± 0.11 | 244 to 246 | – | – | – | – | –
O=C1CSC(c2cn(C(=O)c3ccncc3)nc2-c2ccc(Br)cc2)N1c1cccc(Cl)c1 (stereo not drawn) [Compound P-19] | 1.02 ± 0.12 | 1.21 ± 0.05 | 0.79 ± 0.07 | 248 to 250 | – | – | – | – | –
COc1ccc(N2C(=O)CSC2c2cn(C(=O)c3ccncc3)nc2-c2ccc(Br)cc2)cc1 (stereo not drawn) [Compound P-20, 2-(3-(4-bromophenyl)-1-isonicotinoyl-1H-pyrazol-4-yl)-3-(4-methoxyphenyl) thiazolidin-4-one] | 0.42 ± 0.08 | 0.56 ± 0.06 | 0.22 ± 0.08 | – | 0.39 to 0.56 | – | – | – | –
COc1ccccc1N1C(=O)CSC1c1cn(C(=O)c2ccncc2)nc1-c1ccc(Br)cc1 (stereo not drawn) [Compound P-21] | – | – | – | 260 to 262 | – | – | – | – | –
Cc1cc(Nc2cc(N3CCN(C)CC3)nc(Sc3ccc(NC(=O)C4CC4)cc3)n2)[nH]n1 [VX-680, Tozasertib, reference compound] | – | – | – | – | – | 0.32 ± 0.05 | 0.3 ± 0.03 | 0.4 ± 0.03 | 0.38 ± 0.02
